Experimental data: patent US20250041387A1, “POLYPEPTIDE SEQUENCE OF KDM6B AND APPLICATION OF KDM6B IN REGULATING AND CONTROLLING FUNCTION OF MESENCHYMAL STEM CELL” (BEIJING STOMATOLOGICAL HOSPITAL, CAPITAL MEDICAL UNIVERSITY, priority 2021, published 2025)
Several values for one entry are separate records, joined by “and”; a condition that tells them apart may be missing. Equal entries are not always repeated.

Columns and labels:
[1] = tested on: stem cells from apical papilla; assay: β-gal staining and quantification in SCAPs; assay type: cell-based, human; conditions: SCAPs treated with polypeptide, FIG. 8C, D
Procedure: (§1) Prior to the start of the experiment, the GENMED staining solution (Reagent E) in the kit was taken out of the refrigerator at −20° C., and thawed in an ice bath. Then 9.5 mL of GENMED dilution (Reagent D) was added into a 15 ml conical centrifuge tube, added with 500 μL of GENMED staining solution (Reagent E), mixed well, and then preheated in a 37° C. thermostatic sink. The obtained mixture was labeled as GENMED staining working solution.

[2] = tested on: telomerase reverse transcriptase; assay: ELISA assay of telomerase reverse transcriptase in BMSCs; assay type: cell-based, human; conditions: FIG. 4A
Procedure: • (1) Pre-detection preparation: A standard curve was calculated and plotted using a standard concentration gradient of 400 ng/mL, 200 ng/ml, 100 ng/ml, 50 ng/mL, 25 ng/ml, 12.5 ng/mL, 6.25 ng/mL, and 0 ng/mL. • (2) 100 μL of the standards and samples were added to each well of a 96-well plate. The plate was covered with a provided sealing film, and incubated at 37° C. for 2 hours. The name of the sample was noted on the surface of the sealing film. • (3) The sample in each well was discarded and spin-dried without washing. • (4) 100 μL of Biotin-antibody (1×) was added to each well. The plate was covered with a sealing film, and incubated at […] for 1 hour. If Biotin-antibody (1×) appeared cloudy, Biotin-antibody was warmed to room temperature and stirred gently until clear. • (5) The sample in each well was discarded. Each well was added with 200 μL of Wash Buffer using a multichannel pipette and left to stand for 2 minutes for washing. This process was repeated twice for a total of three times of washing. Complete removal of liquid at each step was critical for good performance. After the last time of washing, the Wash Buffer was discarded, and the 96-well plate was turned upside down and dried with a clean paper. • (6) 100 μL of HRP-avidin (1×) was added to each well. The 96-well microtiter plate was covered with a new sealing film and incubated at 37° C. for 1 hour. • (7) The process of discarding samples and washing in […] was repeated 5 times. • (8) 90 μL of TMB Substrate was added to each well. The plate was incubated in the dark at 37° C. for 15-30 minutes. 50 μL of Stop Solution was added to each well, and the plate was gently taped to mix solution evenly. • (9) The optical density of each well was detected at 450 nm within 5 min using a microtiter plate reader.

[3] = tested on: senescent mouse bone marrow mesenchymal stem cells; assay: Senescence markers β-gal and P16 in senescent mouse BMSCs; assay type: cell-based
[4] = tested on: bone marrow mesenchymal stem cells; assay: β-gal staining and quantification in BMSCs; assay type: cell-based, human; conditions: FIG. 4B, C
Procedure: as §1

[5] = tested on: defected dorsal skin of mice; assay: Dorsal full-thickness skin defect in mice; assay type: in vivo, Balb/c mice; parameters: area of the defect region (dorsal skin): unit not given here; conditions: for area of the defect region (dorsal skin) / Healing rate (dorsal skin defect): individual mice; for Healing rate (dorsal skin defect): FIG. 18
Procedure: Fifteen 8-month-old male Balb/c mice were randomly divided into three groups: PBS group, control group and 114 group, with five mice in each group.
Before the establishment of the defect model, the mice were anaesthetized by injection of 4% chloral hydrate at 0.2 ml/20 g, and the skin was prepared. A circular full-thickness skin defect with a diameter of 6 mm on the back of the mice was created using a skin punch. On the day of the defect creation, the third day, the seventh day, the tenth day, the fourteenth day, the seventeenth day, and the twenty-first day after the defect creation, an equal amount of 100 μl of PBS, 10 μl/ml control peptide, and 10 μl/ml 114 peptide was separately injected at four equidistant sites at 2 mm from the edge of the defect.
The defect region was photographed before each injection, and the area of the defect region was calculated by using Image-Pro plus software. The healing rate was calculated as: healing rate=(area of the defect region on day 0-area of the defect region on day 14/21)/area of the defect region on day 0.

[6] = biological target: KDM6B/WDR5 protein complex (Homo sapiens, UniProt P61964); assay: Co-IP of KDM6B/WDR5 complex in bone marrow mesenchymal stem cells; assay type: cell-based; parameters: endogenous in cells; host or cells: bone marrow mesenchymal stem cells; conditions: FIG. 3C
Procedure: Protein was extracted from cells of knockout group and overexpression group using IP lysate. The knockout group cells SCAPs-Scramsh and SCAPs-KDM6Bsh, SCAPs-Scramsh and SCAPs-WDR5sh, BMSCs-Scramsh and BMSCs-WDR5sh were added with KDM6B antibody, WDR5 antibody, and IgG antibody, respectively, and then rotated on a shaker at 4° C. overnight. On the next day, the cells were added with Protein A/G beads and rotated on a rotary shaker at 4° C. for 2 hours. A complex of protein-antibody-agarose bead was formed, and the formation of a protein complex of KDM6B and WDR5WB was detected by WB. The overexpression group cells SCAPs-Vector, SCAPs-HA-KDM6B, SCAPs-HA-KDM6B-mut102, and SCAPs-HA-KDM6B-mut114 were added with ProteinA/G beads with HA antibody, and cells SCAPs Vector and SCAPs-Myc-WDR5 were added with ProteinA/G beads with Myc antibody. All cells were incubated overnight to form a complex of protein-antibody-agarose bead. The formation of a protein complex of KDM6B and WDR5 was detected by WB method. • (2) Grouping: Input group (loading amount of 25 μg); antibody group (loading amount of 800 μg, 2 μg of antibody); IgG group (loading amount of 800 μg, 2 μg of antibody). Samples were diluted with lysate. • (3) Preparation of protein A/G beads
The protein A/G beads were washed 4 times with PBS, and centrifuged at 2000 g for 2 minutes. The supernatant was carefully collected, and added with PBS to achieve a content of protein A/G beads of 50%. 30 μL of protein A/G beads was added to each tube, and rotated at 4 degrees overnight. • (4) The samples were centrifuged at 5000 rpm for 30 s at 4° C., and washed 4-5 times with PBS by inverted up and down. Then the samples were centrifuged, and the supernatant was discarded. The samples were added with 30 μL of 2× loading buffer, and placed at 100° C. for 5 minutes. • (5) The supernatant was subjected to electrophoresis.

Row | Substance | number of β-gal positive cells (quantification) [1] | number of β-gal positive cells (quantification) ([1]; listed as 114 peptide) | expression of telomerase reverse transcriptase (ELISA) [2] | expression of telomerase reverse transcriptase (ELISA) ([2]; listed as 114 peptide) | expression of senescence markers of β-gal and P16 [3] | number of β-gal positive cells (quantification) [4] | number of β-gal positive cells (quantification) ([4]; listed as 114 peptide) | area of the defect region (dorsal skin) ([5]; Day 0) | area of the defect region (dorsal skin) ([5]; Day 10) | Healing rate (dorsal skin defect) ([5]; Day 10) | area of the defect region (dorsal skin) ([5]; Day 14) | Healing rate (dorsal skin defect) ([5]; Day 14) | healing of defected dorsal skin (observation) ([5]; days 0 and 14, compared to PBS and control peptide groups, FIG. 17) | opening/blocking of the binding of KDM6B/WDR5 protein complex (Co-IP) [6] | number of β-gal positive cells (quantification) ([1]; listed as 102 peptide) | number of β-gal positive cells (quantification) ([4]; listed as 102 peptide)
1 | FITC-(Acp)-ADLTISHCAADVVRAYGRKKRRQRRR [peptide 114] | significant reduction | 3.978 | promote the expression | 0.03888 | reduce | significant reduction | 16.76 | 6226 and 6554 and 6917 and 5532 and 4700 | 1396 and 3701 and 2313 and 983 and 1816 | 0.7758 and 0.4353 and 0.6656 and 0.8223 and 0.6136 | 681 (2×) and 722 and 486 and 715 | 0.8906 and 0.8898 and 0.9015 and 0.9121 and 0.8479 | significant healing | could effectively open the binding |  | 
2 | FITC-(Acp)-KEKSRRVLGNLDLQSYGRKKRRQRRR [peptide 102] | significant reduction |  | 0.02236 |  | reduce | significant reduction |  |  |  |  |  |  |  | could effectively open the binding | 7.296 | 19.33
